{
  "source": "patent US8329166B2",
  "about": "“Pluripotent olfactory stem cells” (Academia Sinica, priority 2005, dated 2012)",
  "tested_on": "SDF-1",
  "assay": "Western blot of SDF-1 in hypoxia-reoxygenation treated cells pre-treated with pathway inhibitors",
  "type": "cell-based, human",
  "conditions": "pre-treatment 10 μM",
  "protocol": "Western blot was also performed to examine the expression of SDF-1, G-CSF, CXCR4, and G-CSF-R in the above-described cells that were treated with hypoxia-reoxygenation. Briefly, cells were placed in a hypoxic chamber (Bug Box, Ruskinn Technology, UK) at 37° C. for 12 hours. The chamber was continuously flushed with 95% N2-5% CO2 to maintain a gas phase PO2 of <1 mmHg (OM-14 oxygen monitor; SensorMedics Corporation, Yorba Linda, Calif.). After each hypoxic treatment, the cells were returned to a 37° C. normoxic incubator (95% air-5% CO2) for different time durations (30 minutes, 1 hour, 4 hours, 12 hours, 24 hours, and 48 hours) of reoxygenation. Cell samples were then collected at each time point and stored at -80° C. For Western blot, the samples were lysed in a buffer containing 320 mM sucrose, 5 mM HEPES, 1 μg/ml leupeptin, 1 μg/ml aprotinin. The resulting lysate were centrifuged at 13,000 g for 15 minutes. The pellet was resuspended in a sample buffer (62.5 mM Tris-HCl, 10% glycerol, 2% SDS, 0.1% bromophenol blue, and 50 mM DTT) and subjected to SDS-polyacrylamide gel (4-12%) electrophoresis. […] The intensity of each detected band was quantified using a Kodak Digital Science 1D Image Analysis System (Eastman Kodak, Rochester, N.Y.). […]",
  "data": [
    {"smiles": "COc1cccc(-c2cc(=O)c3ccccc3o2)c1N", "note": "[PD98059]", "values": [
      {"measurement": "expression of SDF-1", "result": "stayed at the control level"}
    ]}
  ]
}
